Assay results from article PMC6979384, “Characterization of the plant homeodomain (PHD) reader family for their histone tail interactions” (Epigenetics & Chromatin, 2020).

Experiments:
Test in all cases: Histone peptide microarray
Format in all cases: binding, human
Details in all cases: histone peptide array
TAF3 = test system: TAF3
Procedure, shortened: (§1)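 Steps: express and purify GST-tagged PHD reader; incubate 0.5 μM protein on a peptide microarray (293 histone peptides, single or combined PTMs) following an optimized protocol; average signal across 4 replicates.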

BAZ2B = test system: BAZ2B
Procedure, shortened: as §1

ING2 = test system: ING2
Procedure, shortened: as §1

KDM4C (TTP) = test system: KDM4C (TTP)
Procedure, shortened: as §1

MORC3 (CW) = test system: MORC3 (CW)
Procedure, shortened: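 Binding read as mean relative signal from 4 replicates; microarray held 293 synthetic histone peptides with single or combinatorial PTMs. Each GST-tagged PHD reader was applied at 0.5 μM using the optimized Petell protocol.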

KDM5A (1) = test system: KDM5A (1)
Procedure, shortened: as §1

BPTF (PB) = test system: BPTF (PB)
Procedure, shortened: as §1

MLL5 = test system: MLL5
Procedure, shortened: as §1

PHF23 = test system: PHF23
Procedure, shortened: as §1

KDM5B (1) = test system: KDM5B (1)
Procedure, shortened: as §1

SP140L = test system: SP140L
Procedure, shortened: as §1

CHD4 (PPCC) = test system: CHD4 (PPCC)
Procedure, shortened: as §1

ING3 = test system: ING3
Procedure, shortened: as §1

KDM7A = test system: KDM7A
Procedure, shortened: as §1

AIRE (PP) = test system: AIRE (PP)
Procedure, shortened: as §1

TRIM66 (PB) = test system: TRIM66 (PB)
Procedure, shortened: as §1

KDM5B (3) = test system: KDM5B (3)
Procedure, shortened: as §1

PHF2 = test system: PHF2
Procedure, shortened: as §1

PHF21A = test system: PHF21A
Procedure, shortened: as §1

RAG2 = test system: RAG2
Procedure, shortened: as §1

CHD5 (PPCC) = test system: CHD5 (PPCC)
Procedure, shortened: as §1

KDM5A (3) = test system: KDM5A (3)
Procedure, shortened: as §1

PHF8 = test system: PHF8
Procedure, shortened: as §1

CHD5 (PCC) = test system: CHD5 (PCC)
Procedure, shortened: as §1

ING4 = test system: ING4
Procedure, shortened: as §1

ING5 = test system: ING5
Procedure, shortened: as §1

DIDO1 = test system: DIDO1
Procedure, shortened: as §1

DPF2 (PPC2W2) = test system: DPF2 (PPC2W2)
Procedure, shortened: as §1

PHF13 = test system: PHF13
Procedure, shortened: as §1

ING1 = test system: ING1
Procedure, shortened: as §1

PHRF1 (RP) = test system: PHRF1 (RP)
Procedure, shortened: as §1

[1] = sheet "Array Heatmap", GST-tagged reader, total n = 4
[2] = GST-tagged reader, arrays performed twice, n of 4
[3] = GST-tagged reader, PB = PHD + Bromodomain, arrays performed twice, n of 4
[4] = GST-tagged reader, PPCC = Dual PHD + Dual Chromodomain, arrays performed twice, n of 4

Substance: H3T6p: H3 1-20 [Peptide H3T6p]
- Array Heatmap signal, TAF3 (TAF3; [1]): 0.311
- Array Heatmap signal, BAZ2B (BAZ2B; [1]): 0.5538
- Array Heatmap signal, ING2 (ING2; [1]): 0.6272
- Array Heatmap signal, KDM4C (TTP) (KDM4C (TTP); [1]): 0.5715
- Array Heatmap signal, MORC3 (CW) (MORC3 (CW); [1]): 0.5106
- Array Heatmap signal, KDM5A (1) (KDM5A (1); [1]): 0.5432
- Array Heatmap signal, BPTF (PB) (BPTF (PB); [1]): 0.4149
- Array Heatmap signal, MLL5 (MLL5; [1]): 0.6202
- Array Heatmap signal, PHF23 (PHF23; [1]): 0.6281
- Array Heatmap signal, KDM5B (1) (KDM5B (1); [1]): 0.7098
- Array Heatmap signal, SP140L (SP140L; [1]): 0.3962
- Array Heatmap signal, CHD4 (PPCC) (CHD4 (PPCC); [1]): 0.6596
- Array Heatmap signal, ING3 (ING3; [1]): 0.5766
- Array Heatmap signal, KDM7A (KDM7A; [1]): 0.3941
- Array Heatmap signal, AIRE (PP) (AIRE (PP); [1]): 0.5235
- Array Heatmap signal, TRIM66 (PB) (TRIM66 (PB); [1]): 0.7122
- Array Heatmap signal, KDM5B (3) (KDM5B (3); [1]): 0.5406
- Array Heatmap signal, PHF2 (PHF2; [1]): 0.6372
- Array Heatmap signal, PHF21A (PHF21A; [1]): 0.4969
- Array Heatmap signal, RAG2 (RAG2; [1]): 0.3038
- Array Heatmap signal, CHD5 (PPCC) (CHD5 (PPCC); [1]): 0.6595
- Array Heatmap signal, KDM5A (3) (KDM5A (3); [1]): 0.5721
- Array Heatmap signal, PHF8 (PHF8; [1]): 0.4328
- Array Heatmap signal, CHD5 (PCC) (CHD5 (PCC); [1]): 0.9074
- Array Heatmap signal, ING4 (ING4; [1]): 0.5347
- Array Heatmap signal, ING5 (ING5; [1]): 0.4298
- Array Heatmap signal, DIDO1 (DIDO1; [1]): 0.87
- Array Heatmap signal, DPF2 (PPC2W2) (DPF2 (PPC2W2); [1]): 0.8292
- Array Heatmap signal, PHF13 (PHF13; [1]): 0.7024
- Array Heatmap signal, ING1 (ING1; [1]): 0.6423
- Array Heatmap signal, PHRF1 (RP) (PHRF1 (RP); [1]): 0.6983

Substance: H4 (1-23): H4 1-23
- Array Heatmap signal, TAF3 (TAF3; GST-tagged TAF3, arrays performed twice, n of 4): 0.3843
- Array Heatmap signal, BAZ2B (BAZ2B; GST-tagged BAZ2B, arrays performed twice, n of 4): 0.467
- Array Heatmap signal, ING2 (ING2; GST-tagged ING2, arrays performed twice, n of 4): 0.5875
- Array Heatmap signal, KDM4C (TTP) (KDM4C (TTP); GST-tagged KDM4C (TTP = Tandem Tudor domain + PHD), arrays performed twice, n of 4): 0.5139
- Array Heatmap signal, MORC3 (CW) (MORC3 (CW); GST-tagged MORC3 (CW = CW-type Zn-finger), arrays performed twice, n of 4): 0.3892
- Array Heatmap signal, KDM5A (1) (KDM5A (1); GST-tagged KDM5A (1), arrays performed twice, n of 4): 0.4868
- Array Heatmap signal, BPTF (PB) (BPTF (PB); GST-tagged BPTF (PB = PHD + Bromodomain), arrays performed twice, n of 4): 0.3416
- Array Heatmap signal, MLL5 (MLL5; GST-tagged MLL5, arrays performed twice, n of 4): 0.5337
- Array Heatmap signal, PHF23 (PHF23; GST-tagged PHF23, arrays performed twice, n of 4): 0.53
- Array Heatmap signal, KDM5B (1) (KDM5B (1); GST-tagged KDM5B (1), arrays performed twice, n of 4): 0.7073
- Array Heatmap signal, SP140L (SP140L; GST-tagged SP140L, arrays performed twice, n of 4): 0.3814
- Array Heatmap signal, CHD4 (PPCC) (CHD4 (PPCC); GST-tagged CHD4 (PPCC = Dual PHD + Dual Chromodomain), arrays performed twice, n of 4): 0.5522
- Array Heatmap signal, ING3 (ING3; GST-tagged ING3, arrays performed twice, n of 4): 0.4725
- Array Heatmap signal, KDM7A (KDM7A; GST-tagged KDM7A, arrays performed twice, n of 4): 0.4019
- Array Heatmap signal, AIRE (PP) (AIRE (PP); GST-tagged AIRE (PP), arrays performed twice, n of 4): 0.4854
- Array Heatmap signal, TRIM66 (PB) (TRIM66 (PB); GST-tagged TRIM66 (PB = PHD + Bromodomain), arrays performed twice, n of 4): 0.7288
- Array Heatmap signal, KDM5B (3) (KDM5B (3); GST-tagged KDM5B (3), arrays performed twice, n of 4): 0.4835
- Array Heatmap signal, PHF2 (PHF2; GST-tagged PHF2, arrays performed twice, n of 4): 0.4784
- Array Heatmap signal, PHF21A (PHF21A; GST-tagged PHF21A, arrays performed twice, n of 4): 0.4603
- Array Heatmap signal, RAG2 (RAG2; GST-tagged RAG2, arrays performed twice, n of 4): 0.2838
- Array Heatmap signal, CHD5 (PPCC) (CHD5 (PPCC); GST-tagged CHD5 (PPCC = Dual PHD + Dual Chromodomain), arrays performed twice, n of 4): 0.5714
- Array Heatmap signal, KDM5A (3) (KDM5A (3); GST-tagged KDM5A (3), arrays performed twice, n of 4): 0.4566
- Array Heatmap signal, PHF8 (PHF8; GST-tagged PHF8, arrays performed twice, n of 4): 0.3699
- Array Heatmap signal, CHD5 (PCC) (CHD5 (PCC); GST-tagged CHD5 (PCC = PHD + Dual Chromodomain), arrays performed twice, n of 4): 0.772
- Array Heatmap signal, ING4 (ING4; GST-tagged ING4, arrays performed twice, n of 4): 0.4424
- Array Heatmap signal, ING5 (ING5; GST-tagged ING5, arrays performed twice, n of 4): 0.3618
- Array Heatmap signal, DIDO1 (DIDO1; GST-tagged DIDO1, arrays performed twice, n of 4): 0.6189
- Array Heatmap signal, DPF2 (PPC2W2) (DPF2 (PPC2W2); GST-tagged DPF2 (PPC2W2 = Dual PHD + C2W2-type Zn-finger), arrays performed twice, n of 4): 0.7352
- Array Heatmap signal, PHF13 (PHF13; GST-tagged PHF13, arrays performed twice, n of 4): 0.625
- Array Heatmap signal, ING1 (ING1; GST-tagged ING1, arrays performed twice, n of 4): 0.4959
- Array Heatmap signal, PHRF1 (RP) (PHRF1 (RP); GST-tagged PHRF1 (RP), arrays performed twice, n of 4): 0.532

Substance: H4 (1-24): H4 1-24
- Array Heatmap signal, TAF3 (TAF3; [2]): 0.2583
- Array Heatmap signal, BAZ2B (BAZ2B; [2]): 0.4426
- Array Heatmap signal, ING2 (ING2; [2]): 0.5969
- Array Heatmap signal, KDM4C (TTP) (KDM4C (TTP); GST-tagged reader, TTP = Tandem Tudor domain + PHD, arrays performed twice, n of 4): 0.4748
- Array Heatmap signal, MORC3 (CW) (MORC3 (CW); GST-tagged reader, CW = CW-type Zn-finger, arrays performed twice, n of 4): 0.3968
- Array Heatmap signal, KDM5A (1) (KDM5A (1); [2]): 0.4479
- Array Heatmap signal, BPTF (PB) (BPTF (PB); [3]): 0.3511
- Array Heatmap signal, MLL5 (MLL5; [2]): 0.528
- Array Heatmap signal, PHF23 (PHF23; [2]): 0.5274
- Array Heatmap signal, KDM5B (1) (KDM5B (1); [2]): 0.6708
- Array Heatmap signal, SP140L (SP140L; [2]): 0.3819
- Array Heatmap signal, CHD4 (PPCC) (CHD4 (PPCC); [4]): 0.5779
- Array Heatmap signal, ING3 (ING3; [2]): 0.4908
- Array Heatmap signal, KDM7A (KDM7A; [2]): 0.3276
- Array Heatmap signal, AIRE (PP) (AIRE (PP); [2]): 0.4377
- Array Heatmap signal, TRIM66 (PB) (TRIM66 (PB); [3]): 0.5969
- Array Heatmap signal, KDM5B (3) (KDM5B (3); [2]): 0.458
- Array Heatmap signal, PHF2 (PHF2; [2]): 0.4794
- Array Heatmap signal, PHF21A (PHF21A; [2]): 0.4744
- Array Heatmap signal, RAG2 (RAG2; [2]): 0.2506
- Array Heatmap signal, CHD5 (PPCC) (CHD5 (PPCC); [4]): 0.5427
- Array Heatmap signal, KDM5A (3) (KDM5A (3); [2]): 0.4381
- Array Heatmap signal, PHF8 (PHF8; [2]): 0.3446
- Array Heatmap signal, CHD5 (PCC) (CHD5 (PCC); GST-tagged reader, PCC = PHD + Dual Chromodomain, arrays performed twice, n of 4): 0.7379
- Array Heatmap signal, ING4 (ING4; [2]): 0.4561
- Array Heatmap signal, ING5 (ING5; [2]): 0.3526
- Array Heatmap signal, DIDO1 (DIDO1; [2]): 0.6429
- Array Heatmap signal, DPF2 (PPC2W2) (DPF2 (PPC2W2); GST-tagged reader, PPC2W2 = Dual PHD + C2W2-type Zn-finger, arrays performed twice, n of 4): 0.6876
- Array Heatmap signal, PHF13 (PHF13; [2]): 0.6132
- Array Heatmap signal, ING1 (ING1; [2]): 0.5158
- Array Heatmap signal, PHRF1 (RP) (PHRF1 (RP); [2]): 0.5307
